# Data taken from ChEMBL document CHEMBL4270626, “Synthesis and antitumor activity of epothilone B” (Eur J Med Chem, 2018).
# Columns and labels:
# [1] = system: HCT-116; test: Antiproliferative activity against human HCT116 cells assessed as inhibition of cell proliferation; format: functional, cell-based
# [2] = system: KB 3-1; test: Cytotoxicity against human KB3-1 cells; format: functional, cell-based
# [3] = system: KB-V1; test: Cytotoxicity against human KBV1 cells; format: functional, cell-based
# [4] = system: HeLa; test: Cytotoxicity against human HeLa cells; format: functional, cell-based
# [5] = system: Hs-578T; test: Cytotoxicity against human Hs 578T cells; format: functional, cell-based
# [6] = Inhibition of paclitaxel binding to microtubule (unknown origin); design: species or system Homo sapiens
# [7] = Inhibition of GFP-tagged alpha-tubulin (unknown origin) expressed in human MCF7 cells assessed as disruption of microtubule polymerization; format: cell-based
# [8] = biological target: Tubulin; test: […] in human MCF7 cells assessed as induction of mitotic arrest; format: cell-based
# [9] = system: RPMI-8226; test: Antiproliferative activity against human […] cells assessed as inhibition of cell proliferation; format: functional, cell-based
# [10] = system: U-266; test: Antiproliferative activity against human U266 cells assessed as inhibition of cell proliferation; format: functional, cell-based
# [11] = system: MM1.S; test: Antiproliferative activity against human MM1S cells assessed as inhibition of cell proliferation; format: functional, cell-based
# [12] = Antiproliferative activity against human 8226/LR-5 cells assessed as inhibition of cell proliferation; format: functional, cell-based
# [13] = Antiproliferative activity against human RPMI8226/MR20 cells assessed as inhibition of cell proliferation; format: functional, cell-based; settings: RPMI-8226
smiles,measurement,setting,value
C/C(=C\c1csc(C)n1)[C@@H]1C[C@@H]2O[C@]2(C)CCC[C@H](C)[C@H](O)[C@@H](C)C(=O)C(C)(C)[C@@H](O)CC(=O)O1 [PATUPILONE],IC50,[1],0.8 nM
same,IC50,[2],3 to 92 nM
same,IC50,[3],3 to 92 nM
same,IC50,[4],3 to 92 nM
same,IC50,[5],3 to 92 nM
same,IC50,[6],3.3 nM
same,IC50,[7],3.5 nM
same,IC50,[8],3.5 nM
same,IC50,[9],1 to 10 nM
same,IC50,[10],1 to 10 nM
same,IC50,[11],1 to 10 nM
same,IC50,[12],1 to 10 nM
same,IC50,[13],1 to 10 nM
